In patent US4284773A, “1,2,3,5-Tetrahydroimidazothienopyrimidin-2-ones” (Daiichi Seiyaku Co., Ltd., priority 1978, dated 1981):

What was measured:
[1] = blood pressure of normal rat after oral administration; format: in vivo; conditions: 50 mg/kg (p.o) in rat; 5-6 hours after oral administration
Protocol: The blood pressure of normal rat was measured at 5-6 hours after the oral administration at a dose of 50 mg/kg.

[2] = test system: adenosine diphosphate (ADP) induced platelet aggregation; test: in vitro inhibition of adenosine diphosphate (ADP) induced platelet aggregation, aggregometer method of Born, rat platelet rich plasma; format: cell-based; conditions: rat citrated platelet rich plasma, 50% inhibition
Protocol: (§1) The aggregometer method of Born [G. V. Born, Nature, 194, 927 (1962)] was used to assess the in vitro activity of the various compounds as to inhibition of adenosine diphosphate (ADP) and collagen (Coll) induced platelet aggregation. Platelet rich plasma (PRP) was separated by centrifugation from citrated (0.313%) rat blood.
(§2) A methanolic solution of the test compound was added to the PRP, then aggregation was induced by adding to the mixture of ADP solution containing CaCl2 or a collagen suspension prepared according to the method described by Ashida et al [S. Ashida and Y. Abiko, Thromb. Diath. Haemorrh., 30, 528 (1975)], and the optical density of the resulting mixture was determined. […] A dose response curve was drawn from the results obtained above and the effective concentration giving a 50% inhibition (EC50) was calculated.

[3] = test system: Platelet aggregation induced by collagen suspension; test: ex vivo inhibition of collagen-induced platelet aggregation after oral administration in rat; conditions: 50 mg/kg (p.o) in rat, blood collected 2 hours after oral administration, vs vehicle control rats
Protocol: Blood samples were collected 2 hours after oral administration of the
compound to be tested or vehicle alone. Platelet rich plasmas were
obtained by centrifugation of the blood. Platelet aggregation was induced
by adding collagen suspension to the platelet rich plasma and was compare
with that observed with the platelet rich plasma from the control rats

[4] = test system: collagen (Coll) induced platelet aggregation; test: in vitro inhibition of collagen (Coll) induced platelet aggregation, aggregometer method of Born, rat platelet rich plasma; format: cell-based; conditions: rat citrated platelet rich plasma, 50% inhibition
Protocol: as §1, §2

## Cc1cccc2c1CN1CC(=O)NC1=N2 [BL-3459, 6-methyl-1,2,3,5-tetrahydroimidazo[2,1-b]quinazolin-2-one, reference compound]
[1]
  Blood Pressure % Reduction: 35 + 3%
[2]
  EC50: 5 µM
[3]
  Inhibition of Platelet Aggregation ex vivo % Inhibition: 57%
[4]
  EC50: 0.8 µM

## CCCc1sc2c(c1C)CN1CC(=O)NC1=N2 [Compound 16]
[2]
  EC50: 0.58 µM
[3]
  Inhibition of Platelet Aggregation ex vivo % Inhibition: 60%
[4]
  EC50: 0.08 µM

## O=C1CN2Cc3c(sc4c3CCCC4)N=C2N1 [Compound 8, 1,2,3,5,6,7,8,9-octahydroimidazo[1,2-a][1]benzothieno[2,3-d]pyrimidin-2-one]
[1]
  Blood Pressure % Reduction: 8 ± 2%
[2]
  EC50: 5 µM
[3]
  Inhibition of Platelet Aggregation ex vivo % Inhibition: 57%
[4]
  EC50: 0.1 µM

## Cc1c(Cl)sc2c1CN1CC(=O)NC1=N2 [Compound 6]
[2]
  EC50: 4.2 µM
[3]
  Inhibition of Platelet Aggregation ex vivo % Inhibition: 24%
[4]
  EC50: 1.9 µM

## Cc1csc2c1CN1CC(=O)NC1=N2 [Compound 4]
[2]
  EC50: 19 µM
[4]
  EC50: 15 µM

## CCCc1c(CC)sc2c1CN1CC(=O)NC1=N2 [Compound 15]
[2]
  EC50: 3 µM
[3]
  Inhibition of Platelet Aggregation ex vivo % Inhibition: 90%
[4]
  EC50: 2.2 µM

## Cc1scc2c1CN1CC(=O)NC1=N2 [Compound 14]
[2]
  EC50: 17 µM
[3]
  Inhibition of Platelet Aggregation ex vivo % Inhibition: 32%
[4]
  EC50: 3.5 µM

## O=C1CN2Cc3c(sc4c3CCCCC4)N=C2N1 [Compound 9]
[2]
  EC50: 20 µM
[4]
  EC50: 15 µM

## CCCCCc1sc2c(c1C)CN1CC(=O)NC1=N2 [Compound 17]
[2]
  EC50: 2 µM
[4]
  EC50: 0.19 µM

## CC1C(=O)NC2=Nc3sc4c(c3CN21)CCCC4 (stereo not shown) [Compound 18]
[2]
  EC50: 48 µM
[4]
  EC50: 0.6 µM

## O=C1CN2Cc3sccc3N=C2N1 [Compound 11]
[2]
  EC50: 85 µM
[4]
  EC50: 10 µM

## Cc1sc2c(c1C)CN1CC(=O)NC1=N2 [Compound 1, 6,7-dimethyl-1,2,3,5-tetrahydroimidazo[1,2-a]thieno[2,3-d]pyrimidin-2-one]
[1]
  Blood Pressure % Reduction: 5 ± 3%
[2]
  EC50: 5 µM
[3]
  Inhibition of Platelet Aggregation ex vivo % Inhibition: 84%
[4]
  EC50: 1 µM
